Assay results reported in patent US9440982B2 (Eolas Therapeutics, Inc., priority 2012, dated 2016).

What was measured:
CYP3A4 = molecular target: T1, CYP3A4 (Homo sapiens, UniProt P08684); test: Cytochrome P450 inhibition assay (midazolam hydroxylation); type: in vitro ADME; conditions: human, human liver microsomes, probe midazolam (hydroxylation to 1′-hydroxymidazolam), 10 μM test compound, midazolam at approximately its Km
T1 construct: pre-incubated with human liver microsomes and NADPH; from tissue; host or cells: human liver microsomes
T1 sequence (P08684 whole entry): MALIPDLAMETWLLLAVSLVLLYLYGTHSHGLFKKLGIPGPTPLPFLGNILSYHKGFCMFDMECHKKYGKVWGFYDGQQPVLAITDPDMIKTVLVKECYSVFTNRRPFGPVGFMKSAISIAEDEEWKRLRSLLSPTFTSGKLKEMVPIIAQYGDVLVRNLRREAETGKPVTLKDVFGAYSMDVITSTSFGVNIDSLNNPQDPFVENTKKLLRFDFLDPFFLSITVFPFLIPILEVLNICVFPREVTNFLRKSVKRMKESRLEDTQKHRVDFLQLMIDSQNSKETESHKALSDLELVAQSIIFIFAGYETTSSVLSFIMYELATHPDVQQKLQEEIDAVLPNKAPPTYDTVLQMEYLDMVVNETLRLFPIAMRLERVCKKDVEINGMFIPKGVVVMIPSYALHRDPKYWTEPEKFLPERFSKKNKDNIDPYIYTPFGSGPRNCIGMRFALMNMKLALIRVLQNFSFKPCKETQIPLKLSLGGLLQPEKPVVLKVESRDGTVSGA
In short: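 Human liver microsomes; CYP3A4 activity as midazolam 1′-hydroxylation with substrate near Km, with or without 10 μM test compound, read as percent inhibition. For time-dependent inhibition, parallel samples were preincubated 30 min with NADPH before substrate, and percent inhibition compared with non-preincubated samples.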

OX1 = molecular target: T2, OX1 (Homo sapiens, UniProt O43613); test: Orexin receptor cell-based functional assay, [Ca2+]i by FLIPR, CHO-OX1 cells; conditions: CHO-OX1 cells, [Ca2+]i by FLIPR, antagonist dose-range 0.1 nM-10 μM, EC90 of OXA; read-out: OX1
T2 construct: expressed in transfected cells; host or cells: CHO (CHO-OX1, kept under selection antibiotic)
T2 sequence (O43613 1-425): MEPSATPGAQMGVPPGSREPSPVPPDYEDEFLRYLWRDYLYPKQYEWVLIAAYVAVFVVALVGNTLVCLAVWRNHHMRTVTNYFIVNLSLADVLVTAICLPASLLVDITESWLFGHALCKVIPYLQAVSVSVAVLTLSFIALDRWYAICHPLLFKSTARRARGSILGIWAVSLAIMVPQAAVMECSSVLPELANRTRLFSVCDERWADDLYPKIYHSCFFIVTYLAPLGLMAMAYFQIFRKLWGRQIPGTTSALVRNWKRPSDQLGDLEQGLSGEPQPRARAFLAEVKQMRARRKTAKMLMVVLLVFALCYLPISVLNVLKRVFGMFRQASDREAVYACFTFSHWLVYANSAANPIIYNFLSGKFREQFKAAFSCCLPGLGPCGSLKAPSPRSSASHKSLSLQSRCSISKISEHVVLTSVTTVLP
In short: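 CHO cells expressing human OX1 or OX2 loaded with calcium dye plus 2.5 mM probenecid at 37° C (calcium4, 30 min, or calcium6, 2 h), then exposed to compounds (0.1 nM-10 μM) for 30 min. Intracellular Ca2+ measured on FLIPR; antagonist format.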

## COc1ccnc(-c2ccc(C)cc2C(=O)N2CCC[C@@H](C)[C@H]2CNc2ccc(C(F)(F)F)cn2)n1 [Example A21, (2-(4-Methoxypyrimidin-2-yl)-5-methylphenyl)((2S,3R)-3-methyl-2-(((5-(trifluoromethyl)pyridin-2-yl)amino)methyl)piperidin-1-yl)methanone]
CYP3A4
  inhibition at 10 µM: 89%
OX1
  IC50: 0.013 µM

## COc1cccc(NC[C@@H]2[C@H](C)CCCN2C(=O)c2cc(C)ccc2-n2nccn2)n1 [Example A80, ((2S,3R)-2-(((6-Methoxypyridin-2-yl)amino)methyl)-3-methylpiperidin-1-yl)(5-methyl-2-(2H-1,2,3-triazol-2-yl)phenyl)methanone]
CYP3A4
  inhibition at 10 µM: 28%
OX1
  IC50: 1.87 µM

## Cc1ccc(-c2ncccn2)c(C(=O)N2CCC[C@@H](C)[C@H]2CNc2nc3cc(Cl)ccc3o2)c1 [Example A205, ((2S,3R)-2-(((5-Chlorobenzo[d]oxazol-2-yl)amino)methyl)-3-methylpiperidin-1-yl)(5-methyl-2-(pyrimidin-2-yl)phenyl)methanone]
CYP3A4
  inhibition at 10 µM: 72%
OX1
  IC50: 0.011 µM

## Cc1ccc(-n2nccn2)c(C(=O)N2CCC[C@@H](C)[C@H]2CNc2ncc(C(F)(F)F)cc2F)n1 [Example A188, ((2S,3R)-2-(((3-Fluoro-5-(trifluoromethyl)pyridin-2-yl)amino)methyl)-3-methylpiperidin-1-yl)(6-methyl-3-(2H-1,2,3-triazol-2-yl)pyridin-2-yl)methanone]
CYP3A4
  inhibition at 10 µM: 59%
OX1
  IC50: 0.001 µM

## C[C@@H]1CCCN(C(=O)c2ccccc2-c2ncccn2)[C@@H]1CNc1ncc(C(F)(F)F)cn1 [Example A317, ((2S,3R)-3-Methyl-2-(((5-(trifluoromethyl)pyrimidin-2-yl)amino)methyl)piperidin-1-yl)(2-(pyrimidin-2-yl)phenyl)methanone]
CYP3A4
  inhibition at 10 µM: 46%
OX1
  IC50: 0.001 µM

## Cc1ccc(-n2nccn2)c(C(=O)N2CCC[C@@H](C)[C@H]2CNc2ncc3cc(Br)ccc3n2)c1 [Example A122, ((2S,3R)-2-(((6-Bromoquinazolin-2-yl)amino)methyl)-3-methylpiperidin-1-yl)(5-methyl-2-(2H-1,2,3-triazol-2-yl)phenyl)methanone]
CYP3A4
  inhibition at 10 µM: 72%
OX1
  IC50: 0.096 µM

## Cc1ccc(-n2nccn2)c(C(=O)N2CCC[C@@H](C)[C@H]2CNc2ncccc2C(F)(F)F)c1 [Example A88, ((2S,3R)-3-Methyl-2-(((3-(trifluoromethyl)pyridin-2-yl)amino)methyl)piperidin-1-yl)(5-methyl-2-(2H-1,2,3-triazol-2-yl)phenyl)methanone]
CYP3A4
  inhibition at 10 µM: 75%
OX1
  IC50: 0.6 µM

## C[C@@H]1CCCN(C(=O)c2cc(F)c(F)cc2-c2ncccn2)[C@@H]1CNc1ncc(Cl)cn1 [Example A244, ((2S,3R)-2-(((5-Chloropyrimidin-2-yl)amino)methyl)-3-methylpiperidin-1-yl) (4,5-difluoro-2-(pyrimidin-2-yl)phenyl)methanone]
CYP3A4
  inhibition at 10 µM: 70%
OX1
  IC50: 1.3 µM

## Cc1ccc(-c2ncccn2)c(C(=O)N2CCC[C@@H](C)[C@H]2CNc2nc3cc(F)ccc3o2)c1 [Example A206, ((2S,3R)-2-(((5-Fluorobenzo[d]oxazol-2-yl)amino)methyl)-3-methylpiperidin-1-yl)(5-methyl-2-(pyrimidin-2-yl)phenyl)methanone]
CYP3A4
  inhibition at 10 µM: 58%
OX1
  IC50: 0.006 µM

## Cc1ccc(-n2nccn2)c(C(=O)N2CCC[C@@H](C)[C@H]2CNc2nc(C(F)(F)F)cs2)c1 [Example A123, ((2S,3R)-3-Methyl-2-(((4-(trifluoromethyl)thiazol-2-yl)amino)methyl)piperidin-1-yl)(5-methyl-2-(2H-1,2,3-triazol-2-yl)phenyl)methanone]
CYP3A4
  inhibition at 10 µM: 97%
OX1
  IC50: 0.41 µM

## C[C@@H]1CCCN(C(=O)c2c(F)cccc2-c2ncccn2)[C@@H]1CNc1ncc(Cl)cn1 [Example A239, ((2S,3R)-2-(((5-Chloropyrimidin-2-yl)amino)methyl)-3-methylpiperidin-1-yl)(2-fluoro-6-(pyrimidin-2-yl)phenyl)methanone]
CYP3A4
  inhibition at 10 µM: 50%
OX1
  IC50: 0.083 µM

## Cc1ccc(-n2nccn2)c(C(=O)N2CCC[C@@H](C)[C@H]2CNc2ncc(C(F)(F)F)cn2)c1F [Example A319, (2-Fluoro-3-methyl-6-(2H-1,2,3-triazol-2-yl)phenyl)((2S,3R)-3-methyl-2-(((5-(trifluoromethyl)pyrimidin-2-yl)amino)methyl)piperidin-1-yl)methanone]
CYP3A4
  inhibition at 10 µM: 53%
OX1
  IC50: 0.006 µM

## Cc1ccc(-c2ncccn2)c(C(=O)N2CCC[C@@H](C)[C@H]2CNc2ncc(Cl)cc2F)c1 [Example A181, ((2S,3R)-2-(((5-Chloro-3-fluoropyridin-2-yl)amino)methyl)-3-methylpiperidin-1-yl)(5-methyl-2-(pyrimidin-2-yl)phenyl)methanone]
CYP3A4
  inhibition at 10 µM: 76%
OX1
  IC50: 0.004 µM

## C[C@@H]1CCCN(C(=O)c2c(F)cccc2-n2nccn2)[C@@H]1CNc1ncc(Cl)cn1 [Example A260, ((2S,3R)-2-(((5-Chloropyrimidin-2-yl)amino)methyl)-3-methylpiperidin-1-yl)(2-fluoro-6-(2H-1,2,3-triazol-2-yl)phenyl)methanone]
CYP3A4
  inhibition at 10 µM: 53%
OX1
  IC50: 0.085 µM

## CCn1cc(-c2ccc(C)cc2C(=O)N2CCC[C@@H](C)[C@H]2CNc2ccc(C(F)(F)F)cn2)cn1 [Example A110, (2-(1-Ethyl-1H-pyrazol-4-yl)-5-methylphenyl)((2S,3R)-3-methyl-2-(((5-(trifluoromethyl)pyridin-2-yl)amino)methyl)piperidin-1-yl)methanone]
CYP3A4
  inhibition at 10 µM: 95%
OX1
  IC50: 0.016 µM

## Cc1ccc(-c2ccn(C)c2)c(C(=O)N2CCC[C@@H](C)[C@H]2CNc2ccc(C(F)(F)F)cn2)c1 [Example A6, ((2S,3R)-3-Methyl-2-(((5-(trifluoromethyl)pyridin-2-yl)amino)methyl)piperidin-1-yl)(5-methyl-2-(1-methyl-1H-pyrrol-3-yl)phenyl)methanone]
CYP3A4
  inhibition at 10 µM: 85%
OX1
  IC50: 0.013 µM

## Cc1ccc(-c2ccccn2)c(C(=O)N2CCC[C@@H](C)[C@H]2CNc2ccc(Cl)cn2)n1 [Example A169, ((2S,3R)-2-(((5-Chloropyridin-2-yl)amino)methyl)-3-methylpiperidin-1-yl)(6′-methyl-[2,3′-bipyridin]-2′-yl)methanone]
CYP3A4
  inhibition at 10 µM: 60%
OX1
  IC50: 0.008 µM

## Cc1ccc(-c2ccccn2)c(C(=O)N2CCC[C@@H](C)[C@H]2CNc2ccc(C(F)(F)F)nn2)c1 [Example A150, ((2S,3R)-3-Methyl-2-(((6-(trifluoromethyl)pyridazin-3-yl)amino)methyl)piperidin-1-yl) (5-methyl-2-(pyridin-2-yl)phenyl)methanone]
CYP3A4
  inhibition at 10 µM: 74%
OX1
  IC50: 0.13 µM

## Cc1ccc(-c2ncccn2)c(C(=O)N2CCC[C@@H](C)[C@H]2CNc2nc3ccccc3o2)c1 [Example A204, ((2S,3R)-2-((Benzo[d]oxazol-2-ylamino)methyl)-3-methylpiperidin-1-yl)(5-methyl-2-(pyrimidin-2-yl)phenyl)methanone]
CYP3A4
  inhibition at 10 µM: 60%
OX1
  IC50: 0.003 µM

## Cc1ccc(-n2nccn2)c(C(=O)N2CCC[C@@H](C)[C@H]2CNc2ccc(C)nn2)c1 [Example A146, ((2S,3R)-3-Methyl-2-(((6-methylpyridazin-3-yl)amino)methyl)piperidin-1-yl)(5-methyl-2-(2H-1,2,3-triazol-2-yl)phenyl)methanone]
CYP3A4
  inhibition at 10 µM: 29%
OX1
  IC50: > 1 µM
